Measured values: patent publication US6656942B2, “Orally active salts with tyrosine kinase activity” (Merck & Co., Inc., priority 2000, dated 2003)
Structures can show the parent of a compound that is named as a salt.

Test: Solubility of HCl salt 1-11D suspended in solvents for 7 days at room temperature
Format: physicochemical
Details: RT for 7 days
Experimental: HCl salt 1-11D is also crystalline as witnessed by the X-ray powder diffraction pattern of the material, having multiple diffraction peaks between 5° and 30° 2-theta. […] (rate of 10° C./min). The compound is birefringent under plane polarized light. It is needle-shaped particles of approximately 5-25 micron. The solubility of salt 1-11D was measured in water and various organic solvents. Table VI below summarizes the solubility of the 1-11D suspended in various solvents for 7 days at room temperature.

`CS(=O)(=O)N1CCN(Cc2ccc3[nH]c(-c4cc5ccccc5[nH]c4=O)cc3c2)CC1` [Salt 1-11D] gave a solubility (Aqueous ETOH) of 4.34 mg/mL, a solubility (Aqueous IPA) of 3.99 mg/mL and a solubility (Ethanol) of 0.13 mg/mL. For the same molecule, the solubility (Isopropanol) was 0.057 mg/mL and the solubility (Water) was 0.62 mg/mL.
